Data reported in US20260200890A1, “ADAR1 INHIBITORS AND METHODS OF USING THE SAME” (AVAMMUNE THERAPEUTICS INC., priority 2022, published 2026).

Assays:
[1] = biological target: T1, ADAR1 (Homo sapiens, UniProt P55265); test: ADAR1 Inhibition Assay (IFN fold-induction, Quanti-Luc luminescence, p110 KO A549 dual cells); type: cell-based; settings: IFN fold-induction vs DMSO, 24 and 48 h
T1 construct: endogenous in cells; host or cells: p110 KO A549 dual cells
T1 sequence (P55265 1-1226): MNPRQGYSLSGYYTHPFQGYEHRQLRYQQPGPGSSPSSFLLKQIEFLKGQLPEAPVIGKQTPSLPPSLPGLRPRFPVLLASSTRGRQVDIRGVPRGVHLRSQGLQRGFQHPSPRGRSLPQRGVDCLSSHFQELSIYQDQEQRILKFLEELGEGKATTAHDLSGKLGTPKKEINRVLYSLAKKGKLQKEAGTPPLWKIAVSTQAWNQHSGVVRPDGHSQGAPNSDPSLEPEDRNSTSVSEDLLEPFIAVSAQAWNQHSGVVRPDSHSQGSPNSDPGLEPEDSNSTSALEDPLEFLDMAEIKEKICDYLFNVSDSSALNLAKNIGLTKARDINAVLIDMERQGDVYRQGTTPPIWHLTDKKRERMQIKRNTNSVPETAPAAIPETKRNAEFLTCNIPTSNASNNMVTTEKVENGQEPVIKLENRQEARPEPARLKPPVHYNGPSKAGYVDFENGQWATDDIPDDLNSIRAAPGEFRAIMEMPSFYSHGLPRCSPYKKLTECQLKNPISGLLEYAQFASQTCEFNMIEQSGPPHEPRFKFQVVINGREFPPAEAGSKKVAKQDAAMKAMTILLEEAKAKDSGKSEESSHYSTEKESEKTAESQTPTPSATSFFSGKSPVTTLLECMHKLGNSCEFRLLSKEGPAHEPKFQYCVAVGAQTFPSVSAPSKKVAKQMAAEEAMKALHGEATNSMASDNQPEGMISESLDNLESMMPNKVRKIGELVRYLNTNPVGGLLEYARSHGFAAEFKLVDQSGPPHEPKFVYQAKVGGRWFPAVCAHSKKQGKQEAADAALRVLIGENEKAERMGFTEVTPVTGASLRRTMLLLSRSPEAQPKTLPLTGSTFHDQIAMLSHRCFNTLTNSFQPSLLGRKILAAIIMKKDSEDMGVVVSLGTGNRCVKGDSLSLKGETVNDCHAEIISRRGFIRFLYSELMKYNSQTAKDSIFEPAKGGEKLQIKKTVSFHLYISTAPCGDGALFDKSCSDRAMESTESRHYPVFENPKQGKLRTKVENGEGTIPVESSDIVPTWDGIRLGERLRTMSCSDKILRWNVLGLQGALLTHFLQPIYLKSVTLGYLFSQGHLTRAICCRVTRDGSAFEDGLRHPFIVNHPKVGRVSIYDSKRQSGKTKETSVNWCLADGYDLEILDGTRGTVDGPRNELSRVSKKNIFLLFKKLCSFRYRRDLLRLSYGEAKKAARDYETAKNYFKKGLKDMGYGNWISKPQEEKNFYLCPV
In short: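 p110 KO A549 dual cells (20,000/well) in supplemented DMEM, treated next day with compound at 1% final DMSO for 24 and 48 h at 37 °C, 5% CO2. Supernatant luminescence read with Quanti-Luc; IFN fold-induction = sample RLU/mean DMSO RLU, used for EC50.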

[2] = biological target: T2, Zα domain of ADAR1 p150 (Homo sapiens, UniProt P55265); test: SPR binding assay; settings: 6× his tag Zα domain immobilized on CM5 chip, analyte 0-25 μM
T2 construct: 10 μg/ml of Zα domain of ADAR1 was immobilized on CM5 chip using anti-HIS antibody; made in house
T2 sequence (P55265 133-199 limits assumed): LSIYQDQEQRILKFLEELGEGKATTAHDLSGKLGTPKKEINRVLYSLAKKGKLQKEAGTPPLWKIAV
Method: 6× his tag Za domain of ADAR1 p150 was purified using bacterial purification system. Protein was isolated from supernatant of cell lysate using Ni-NTA resin. For binding assay using SPR, 10 μg/ml of Zα domain of ADAR1 was immobilized on CM5 chip using anti-HIS antibody. Binding was quantified using the following condition below: • Analyte: 25, 12.5, 6.25, 3.125, 1.56, 0.78, 0 μM • Contact time—60 seconds, • Dissociation time—320 seconds • Flow rate—30 μL/minute Running buffer-PBSP+5% DMSO • After curve fitting, Kd values for synthesized compounds was quantified using the instrument software.

[3] = system: A549 p110 KO cells; test: IFN-β induction in A549 p110 KO cells; type: cell-based, human
[4] = system: WT A549 cells; test: IFN-β induction in WT A549 cells; type: cell-based, human; settings: compared to A549 p110 KO cells, FIG. 1B
[5] = system: A549 (p110 KO); test: Interferon-stimulated gene expression in A549 (p110 KO); type: cell-based, human; settings: FIG. 2, FIGS. 3A-3D
[6] = system: HCT 116; test: Interferon-stimulated gene expression in HCT 116; type: cell-based, human; settings: FIG. 4, FIGS. 5A-5D
[7] = system: B16F10; test: MDA5, IFN-β, CXCL10 levels in murine cancer cell line B16F10; type: cell-based; settings: FIG. 6, FIGS. 7A-7B
[8] = system: B16F10 melanoma; test: B16F10 mouse melanoma model, anti-tumor efficacy; type: in vivo
Description: (§1) Study: A B16F10 mouse melanoma model was used to evaluate the anti-tumor efficacy of Compound 1, alone or in combination with anti-PD-1 therapy.

[9] = system: B16F10 tumors; test: Tumor MDA5, IFN-β and CXCL10 levels in mice with B16F10 tumors; type: in vivo, mouse
Description: as §1

Row | Compound | EC50 [1] [µM] | Kd [2] [µM] | also measured
1 | CCOC(=O)c1cc(-c2ccccc2)sc1NC(=O)Cn1cc(-c2cccc(P(=O)(OCC)OCC)c2)nn1 [Compound 385] | > 100 | ≤ 1 | –
2 | CCOC(=O)c1cc(-c2ccc(P(=O)(OCC)OCC)cc2)sc1NC(=O)COC(=O)c1cccc(NS(C)(=O)=O)c1 [Compound 389] | > 100 | > 25 | –
3 | CCOC(=O)c1cc(-c2ccccc2)sc1NC(=O)CNC(=O)Cc1ccc(P(=O)(OCC)OCC)cc1 [Compound 402] | 50 to 100 | ≤ 1 | –
4 | CCOC(=O)c1cc(-c2ccccc2)[nH]c1NC(=O)[C@@H]1CCN(C(=O)c2cccc(P(=O)(OC)OCC)c2)C1 (stereo partly drawn) [Compound 403] | 50 to 100 | > 25 | –
5 | CCOC(=O)c1cc(-c2ccccc2)sc1NC(=O)[C@H]1CCN(C(=O)c2cccc(P(=O)(OCC)OCC)c2)C1 [Compound 406] | 50 to 100 | ≤ 1 | –
6 | CCOC(=O)c1cc(-c2ccccc2)[nH]c1NC(=O)C1CCN(C(=O)c2cccc(NS(C)(=O)=O)c2)C1 (stereo not drawn) [Compound 412] | > 100 | > 25 | –
7 | CCOC(=O)c1cc(-c2ccccc2)sc1NC(=O)[C@H]1CCCN1C(=O)c1cccc(P(=O)(O)O)c1 [Compound 414] | > 100 | ≤ 1 | –
8 | CCOC(=O)c1cc(-c2ccccc2)sc1NC(=O)[C@@H]1CCN(C(=O)c2cccc(P(=O)(OCC)OCC)c2)C1 [Compound 415] | > 100 | ≤ 1 | –
9 | CCOC(=O)c1cc(-c2ccccc2)sc1NC(=O)CNC(=O)c1cccc(S(N)(=O)=O)c1 [Compound 416] | > 100 | ≤ 1 | –
10 | CCOC(=O)c1nc(-c2ccccc2)oc1NC(=O)COC(=O)c1cccc(P(=O)(O)O)c1 [Compound 418] | > 100 | > 10 | –
11 | CCOC(=O)c1cc(-c2ccccc2)sc1NC(=O)Cn1cc(C(=O)Nc2cccc(P(=O)(O)O)c2)nn1 [Compound 420] | > 100 | ≤ 1 | –
12 | CCOC(=O)c1cc(-c2ccccc2)sc1NC(=O)COC(=O)c1ccc(P(=O)(OCC)OCC)cc1 [Compound 421] | > 100 | ≤ 1 | –
13 | CCOC(=O)c1cc(-c2ccccc2)sc1NC(=O)COC(=O)c1ccc(P(=O)(O)O)cc1 [Compound 424] | > 100 | ≤ 1 | –
14 | CCOC(=O)c1cc(-c2ccccc2)sc1NC(=O)[C@H]1CCN(C(=O)c2cccc(S(N)(=O)=O)c2)C1 [Compound 426] | > 100 | ≤ 1 | –
15 | CCOC(=O)c1cc(-c2ccccc2)sc1NC(=O)Cn1cc(-c2cccc(S(N)(=O)=O)c2)nn1 [Compound 427] | > 100 | ≤ 1 | –
16 | CCOC(=O)c1cc(-c2ccccc2)sc1NC(=O)[C@H]1CCN(C(=O)c2cccc(S(=O)(=O)NC(C)=O)c2)C1 [Compound 428] | > 100 | ≤ 1 | –

Now from value to compound, other results behind:

Row | EC50 [1] [µM] | Kd [2] [µM] | Compound | also measured
17 | ≤ 25 | ≤ 1 | CCOC(=O)c1cc(-c2ccccc2)sc1NC(=O)COC(=O)c1cccc(S(N)(=O)=O)c1 [Compound 1, Ethyl 5-phenyl-2-(2-((3-sulfamoylbenzoyl)oxy)acetamido)thiophene-3-carboxylate] | IFN-β induction (via ADAR1 inhibition) ([3]; FIG. 1A): dose-dependent IFN-β induction; IFN-β induction compared to STING agonists cGAMP, ADU-S100, MSA-002 ([3]; FIG. 1C): superior IFN-β induction; IFN-β induction [4]: Lower IFN-β induction; expression of several interferon-stimulated genes (ISGs) [5]: dose-dependent expression; expression of several interferon-stimulated genes (ISGs) [6]: dose-dependent expression; upregulation of MDA5, IFN-β, and CXCL10 [7]: dose-dependent upregulation; tumor growth inhibition (TGI) ([8]; B16F10 mouse melanoma model, FIG. 8): 45%; tumor weight reduction ([8]; compared to vehicle control, Compound 1 100 μg, FIG. 9): about 60%; tumor MDA5 mRNA levels ([9]; B16F10 melanoma model, FIG. 10): significant increase; induction of IFN-β and CXCL10 ([9]; B16F10 tumors in mice, FIG. 11A, 11B): increased induction
18 | > 100 | ≤ 1 | CCNC(=O)c1cc(-c2ccccc2)sc1NC(=O)CNC(=O)Cc1cccc(NS(C)(=O)=O)c1 [Compound 376] | –
19 | > 100 | ≤ 1 | CCOC(=O)c1cc(-c2ccccc2)sc1NC(=O)C1CCCCN1C(=O)Cc1cccc(NS(C)(=O)=O)c1 (stereo not drawn) [Compound 380] | –
20 | > 100 | 1 to 10 | CCNC(=O)c1cc(-c2ccccc2)sc1NC(=O)CN(C)C(=O)Cc1cccc(NS(C)(=O)=O)c1 [Compound 384] | –
21 | > 100 | > 25 | CCOC(=O)c1cc(-c2ccccc2)sc1NC(=O)Cn1cc(-c2cccc(P(=O)(O)O)c2)nn1 [Compound 386] | –
22 | > 100 | ≤ 1 | CCOC(=O)c1cc(-c2ccccc2)ncc1NC(=O)CNC(=O)Cc1cccc(NS(C)(=O)=O)c1 [Compound 387] | –
23 | > 100 | ≤ 1 | CCOC(=O)c1cc(-c2ccc(P(=O)(O)O)cc2)sc1NC(=O)COC(=O)c1cccc(NS(C)(=O)=O)c1 [Compound 388] | –
24 | > 100 | > 25 | CCOC(=O)c1cc(-c2ccccc2)[nH]c1NC(=O)CNC(=O)c1cccc(NS(C)(=O)=O)c1 [Compound 395] | –
25 | > 100 | ≤ 1 | CCOC(=O)c1cc(-c2ccccc2)sc1NC(=O)COC(=O)C1(c2cccc(NS(C)(=O)=O)c2)CCCC1 [Compound 396] | –
26 | > 100 | ≤ 1 | CCOC(=O)c1cc(-c2ccccc2)sc1NC(=O)[C@H]1CCN(Cc2cccc(P(=O)(O)O)c2)C1 [Compound 397] | –
27 | > 100 | > 25 | CCOC(=O)c1cc(-c2ccccc2)sc1NC(=O)[C@@H]1CCN(Cc2cccc(P(=O)(O)O)c2)C1 [Compound 398] | –
28 | > 100 | ≤ 1 | CCOC(=O)c1cc(-c2ccccc2)sc1NC(=O)COC(=O)c1cccc(S(=O)(=O)NC(C)=O)c1 [Compound 399] | –
29 | > 100 | 1 to 10 | CCOC(=O)c1sc(-c2ccccc2)cc1NC(=O)COC(=O)c1cccc(P(=O)(O)O)c1 [Compound 400] | –
30 | 50 to 100 | ≤ 1 | CCOC(=O)c1cc(-c2ccccc2)sc1NC(=O)CNC(=O)Cc1ccc(P(=O)(O)O)cc1 [Compound 405] | –
31 | > 100 | ≤ 1 | CCOC(=O)c1cc(-c2ccccc2)sc1NC(=O)Cn1cc(CNC(=O)c2cccc(P(=O)(O)O)c2)nn1 [Compound 409] | –
